Measurements: US7018624B2, “Delivery of poly(ethylene glycol)-modified molecules from degradable hydrogels” (Debio Recherche Pharmaceutique S.A., priority 1996, dated 2006)

Experiment: Hydrolysis kinetics of the ester linkages of mPEG-O-(CH2)n-COO-mPEG in buffer, followed by HPLC-GPC
Assay type: physicochemical
Description: To precisely measure the hydrolysis kinetics of the ester linkages, water-soluble, non-crosslinked mPEG-O—(CH2)n—COO-MPEG was synthesized as in Example 2. Hydrolysis was carried out in buffer solutions (0.1 M) at different pHs and temperatures, and followed by HPLC-GPC (Ultrahydrogel® 250, Waters).

Hydrolysis half lives of the ester (pH 5.5): >150 days
Hydrolysis half lives of the ester (pH 8.1): 5 days
Substance: mPEG-O-(CH2)n-COO-mPEG [CM ester linkage]
